The source of these data is ChEMBL document CHEMBL5291721, “A preclinical secondary pharmacology resource illuminates target-adverse drug reaction associations of marketed drugs” (Nat Commun, 2023).

Assay [1] has as its target T1, Alpha-2A adrenergic receptor (Homo sapiens, UniProt P08913).
T1 sequence (P08913 whole entry): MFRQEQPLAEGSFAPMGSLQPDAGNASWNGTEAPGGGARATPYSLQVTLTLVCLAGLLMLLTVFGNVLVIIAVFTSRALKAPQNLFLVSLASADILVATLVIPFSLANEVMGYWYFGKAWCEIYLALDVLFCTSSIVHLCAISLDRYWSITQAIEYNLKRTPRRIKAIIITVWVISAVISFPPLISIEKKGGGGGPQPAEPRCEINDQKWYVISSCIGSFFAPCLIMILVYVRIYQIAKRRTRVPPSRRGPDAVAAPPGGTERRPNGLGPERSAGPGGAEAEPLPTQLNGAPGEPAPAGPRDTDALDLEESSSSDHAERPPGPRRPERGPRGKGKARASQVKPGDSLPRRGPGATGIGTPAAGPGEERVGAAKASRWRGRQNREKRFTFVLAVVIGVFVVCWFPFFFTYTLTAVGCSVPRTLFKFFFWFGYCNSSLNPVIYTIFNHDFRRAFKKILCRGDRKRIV
The format is functional, cell-based.

Assay [2] addresses Beta-2 adrenergic receptor (Homo sapiens, UniProt P07550). The format is functional, cell-based.
Assay [3] concerns the target T2, 5-hydroxytryptamine receptor 1A (Homo sapiens, UniProt P08908).
T2 sequence (P08908 whole entry): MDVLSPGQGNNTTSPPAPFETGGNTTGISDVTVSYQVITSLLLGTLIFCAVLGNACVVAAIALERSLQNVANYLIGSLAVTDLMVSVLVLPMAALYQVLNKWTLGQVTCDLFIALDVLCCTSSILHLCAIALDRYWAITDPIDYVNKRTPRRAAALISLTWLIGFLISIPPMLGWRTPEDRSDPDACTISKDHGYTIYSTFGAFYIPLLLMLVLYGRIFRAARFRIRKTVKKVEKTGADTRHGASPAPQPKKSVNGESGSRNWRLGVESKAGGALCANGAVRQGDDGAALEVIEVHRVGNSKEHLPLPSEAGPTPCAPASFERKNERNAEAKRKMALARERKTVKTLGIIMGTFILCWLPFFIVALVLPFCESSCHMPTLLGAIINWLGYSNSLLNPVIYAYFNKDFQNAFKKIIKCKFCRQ
The format is functional, cell-based.

Assay [4] deals with T3, 5-hydroxytryptamine receptor 3A (Homo sapiens, UniProt P46098).
T3 sequence (P46098 whole entry): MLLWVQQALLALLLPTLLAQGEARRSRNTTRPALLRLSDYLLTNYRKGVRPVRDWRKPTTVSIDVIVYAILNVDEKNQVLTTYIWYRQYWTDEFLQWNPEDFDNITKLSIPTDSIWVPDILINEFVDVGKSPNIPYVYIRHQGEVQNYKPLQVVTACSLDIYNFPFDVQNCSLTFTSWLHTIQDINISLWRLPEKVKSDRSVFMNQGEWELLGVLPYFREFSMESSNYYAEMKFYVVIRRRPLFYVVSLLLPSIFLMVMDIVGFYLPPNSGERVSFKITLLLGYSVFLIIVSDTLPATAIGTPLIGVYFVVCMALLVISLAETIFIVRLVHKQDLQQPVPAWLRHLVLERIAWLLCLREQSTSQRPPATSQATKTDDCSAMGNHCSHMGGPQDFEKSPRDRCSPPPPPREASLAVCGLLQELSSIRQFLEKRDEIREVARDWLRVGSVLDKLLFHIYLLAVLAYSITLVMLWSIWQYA
Type of assay: functional.

In the next assay the target is Melanocortin receptor 3 (Homo sapiens, UniProt P41968).
A further assay concerns the target T4, Thromboxane A2 receptor (Homo sapiens, UniProt P21731).
T4 sequence (P21731 whole entry): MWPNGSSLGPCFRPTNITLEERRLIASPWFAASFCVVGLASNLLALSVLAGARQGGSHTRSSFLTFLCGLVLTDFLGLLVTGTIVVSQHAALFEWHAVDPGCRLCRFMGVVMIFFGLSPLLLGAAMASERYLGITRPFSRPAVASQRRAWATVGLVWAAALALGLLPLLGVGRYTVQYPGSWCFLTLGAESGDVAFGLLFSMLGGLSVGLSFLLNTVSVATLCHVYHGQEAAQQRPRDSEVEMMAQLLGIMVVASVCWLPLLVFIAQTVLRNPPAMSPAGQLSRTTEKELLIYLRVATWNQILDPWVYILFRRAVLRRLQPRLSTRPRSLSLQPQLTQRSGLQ

Assay [5] addresses Sodium-dependent dopamine transporter (Homo sapiens, UniProt Q01959).
Assay [6] addresses Sodium-dependent noradrenaline transporter (Homo sapiens, UniProt P23975).
Assay [7] deals with T5, Alpha-1A adrenergic receptor (Homo sapiens, UniProt P35348).
T5 sequence (P35348 whole entry): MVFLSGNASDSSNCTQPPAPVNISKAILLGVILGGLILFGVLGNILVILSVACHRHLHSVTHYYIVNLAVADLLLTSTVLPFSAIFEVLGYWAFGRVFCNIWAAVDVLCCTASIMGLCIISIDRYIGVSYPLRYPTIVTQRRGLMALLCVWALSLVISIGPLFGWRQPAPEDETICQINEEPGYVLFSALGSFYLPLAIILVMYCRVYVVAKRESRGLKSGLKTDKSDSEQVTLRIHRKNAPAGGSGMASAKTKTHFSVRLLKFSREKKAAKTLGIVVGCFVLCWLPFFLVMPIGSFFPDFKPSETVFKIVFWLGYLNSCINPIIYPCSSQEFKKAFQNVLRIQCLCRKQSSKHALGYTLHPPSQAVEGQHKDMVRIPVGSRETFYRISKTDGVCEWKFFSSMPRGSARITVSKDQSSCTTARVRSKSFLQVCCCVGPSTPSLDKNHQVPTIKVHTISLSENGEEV
Type of assay: functional, cell-based.

A value given as a limit tells only on which side of the number the result lay.
Also: assay procedure not described here.

Sequence of Sodium-dependent noradrenaline transporter (P23975 whole entry): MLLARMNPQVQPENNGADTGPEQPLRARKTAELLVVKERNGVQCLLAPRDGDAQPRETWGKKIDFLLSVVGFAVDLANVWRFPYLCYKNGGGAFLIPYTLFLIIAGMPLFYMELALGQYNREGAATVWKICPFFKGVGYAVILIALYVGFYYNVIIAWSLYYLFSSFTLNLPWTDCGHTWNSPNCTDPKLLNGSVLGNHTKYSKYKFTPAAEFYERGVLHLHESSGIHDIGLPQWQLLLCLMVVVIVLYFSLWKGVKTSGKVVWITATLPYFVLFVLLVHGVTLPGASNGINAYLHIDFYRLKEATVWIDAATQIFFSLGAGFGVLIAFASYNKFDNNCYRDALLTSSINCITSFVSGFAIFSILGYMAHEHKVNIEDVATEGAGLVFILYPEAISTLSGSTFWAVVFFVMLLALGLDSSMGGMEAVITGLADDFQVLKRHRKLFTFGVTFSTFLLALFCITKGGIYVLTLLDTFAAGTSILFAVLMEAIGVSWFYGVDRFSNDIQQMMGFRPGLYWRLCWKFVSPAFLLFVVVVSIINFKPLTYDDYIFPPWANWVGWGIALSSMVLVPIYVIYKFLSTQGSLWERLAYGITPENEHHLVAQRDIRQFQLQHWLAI
Sequence of Melanocortin receptor 3 (P41968 whole entry): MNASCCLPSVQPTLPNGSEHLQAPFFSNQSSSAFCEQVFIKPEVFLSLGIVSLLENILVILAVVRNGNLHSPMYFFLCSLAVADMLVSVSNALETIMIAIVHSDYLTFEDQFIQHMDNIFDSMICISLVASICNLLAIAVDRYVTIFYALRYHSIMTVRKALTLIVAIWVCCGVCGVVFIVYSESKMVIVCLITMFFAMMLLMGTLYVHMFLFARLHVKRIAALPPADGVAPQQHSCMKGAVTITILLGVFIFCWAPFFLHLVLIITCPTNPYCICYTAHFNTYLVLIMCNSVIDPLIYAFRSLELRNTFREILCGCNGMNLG
Sequence of Sodium-dependent dopamine transporter (Q01959 whole entry): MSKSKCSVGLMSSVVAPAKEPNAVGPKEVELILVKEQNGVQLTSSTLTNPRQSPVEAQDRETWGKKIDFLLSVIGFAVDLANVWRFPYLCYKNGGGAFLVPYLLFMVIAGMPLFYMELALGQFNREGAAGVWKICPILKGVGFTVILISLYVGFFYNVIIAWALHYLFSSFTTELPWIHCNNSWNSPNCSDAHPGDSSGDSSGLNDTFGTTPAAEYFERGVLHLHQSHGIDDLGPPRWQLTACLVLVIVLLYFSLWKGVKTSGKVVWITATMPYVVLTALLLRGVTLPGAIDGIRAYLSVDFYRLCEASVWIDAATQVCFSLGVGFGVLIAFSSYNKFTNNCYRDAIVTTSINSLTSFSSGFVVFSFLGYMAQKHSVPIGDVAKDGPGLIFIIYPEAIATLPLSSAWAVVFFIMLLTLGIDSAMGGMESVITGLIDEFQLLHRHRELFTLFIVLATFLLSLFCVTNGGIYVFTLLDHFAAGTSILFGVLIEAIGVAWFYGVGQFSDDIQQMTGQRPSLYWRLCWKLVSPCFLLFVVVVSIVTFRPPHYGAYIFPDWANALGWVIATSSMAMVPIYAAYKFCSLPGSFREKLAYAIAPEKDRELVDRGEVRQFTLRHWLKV
Sequence of Beta-2 adrenergic receptor (P07550 whole entry): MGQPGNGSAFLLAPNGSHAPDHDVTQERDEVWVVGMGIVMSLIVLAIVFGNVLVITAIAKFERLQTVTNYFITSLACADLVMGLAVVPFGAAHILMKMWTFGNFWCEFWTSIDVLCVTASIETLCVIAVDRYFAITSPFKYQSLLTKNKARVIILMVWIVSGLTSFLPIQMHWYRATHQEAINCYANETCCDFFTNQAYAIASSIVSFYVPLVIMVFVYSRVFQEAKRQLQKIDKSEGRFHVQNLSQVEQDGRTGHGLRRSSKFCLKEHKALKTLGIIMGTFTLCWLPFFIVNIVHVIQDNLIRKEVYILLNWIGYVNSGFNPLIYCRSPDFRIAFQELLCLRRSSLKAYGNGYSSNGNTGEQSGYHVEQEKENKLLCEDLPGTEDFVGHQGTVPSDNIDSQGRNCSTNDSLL

Broadly, the AC50 is the concentration at which the activity in the assay is half-maximal. High values mean activity only at high concentration, low ones activity at low concentration. For the compound `CCOc1nc2cccc(C(=O)O)c2n1Cc1ccc(-c2ccccc2-c2nnn[nH]2)cc1`, the AC50 in [1] was more than 30 µM; in assay [2] it was more than 30 µM; in assay [3] it was more than 30 µM; in [4], more than 30 µM; on Melanocortin receptor 3, more than 30 µM; on Thromboxane A2 receptor it was more than 10 µM. The half-maximal activity concentration (AC50) in [5], in [6] and in assay [7] was more than 30 µM in each case.

`CCCc1nc2c(C)cc(-c3nc4ccccc4n3C)cc2n1Cc1ccc(-c2ccccc2C(=O)O)cc1`: the AC50 was more than 30 µM in assay [1]; more than 30 µM in assay [2]; more than 30 µM in [3]; more than 30 µM in assay [4]; more than 30 µM at Melanocortin receptor 3; 18.1 µM at Thromboxane A2 receptor. The AC50 in assay [5] is more than 30 µM; in [6] it was more than 30 µM; in assay [7], 3 µM.

On to `CC1(C)S[C@@H]2[C@H](NC(=O)C(C(=O)O)c3ccccc3)C(=O)N2[C@H]1C(=O)O` (stereo partly drawn) [CARBENICILLIN], for which the AC50 (in assay [1]; in assay [2]; in assay [3]; in assay [4]; on Melanocortin receptor 3; in assay [5]) was more than 30 µM throughout. Besides, the AC50 in assay [6] and in [7] was more than 30 µM throughout.

In the case of `Cc1nnc(SCC2=C(C(=O)O)N3C(=O)[C@@H](NC(=O)Cn4cnnn4)[C@H]3SC2)s1` [CEFAZOLIN], the AC50 (in assay [1]; in assay [2]; in assay [3]; in [4]; on Melanocortin receptor 3; in assay [5]) was more than 300 µM in each case. The AC50 in assay [6] and in assay [7] was more than 300 µM each time.

In the case of `CC(C)(O/N=C(\C(=O)N[C@@H]1C(=O)N2C(C(=O)[O-])=C(C[n+]3ccccc3)CS[C@H]12)c1csc(N)n1)C(=O)O` [CEFTAZIDIME], the AC50 (in assay [1]; in [2]; in assay [3]; in [4]; at Melanocortin receptor 3; in assay [5]) was more than 300 µM in each case. The AC50 in assay [6] and in assay [7] was more than 300 µM in each case.

Turning to `CCCNC(=O)NS(=O)(=O)c1ccc(Cl)cc1` [CHLORPROPAMIDE], the AC50 was more than 10 µM in [1]; more than 30 µM in [2]; more than 10 µM in assay [3]; more than 30 µM in [4]; more than 30 µM at Melanocortin receptor 3; more than 30 µM on Thromboxane A2 receptor. Besides, the concentration at half-maximal activity (AC50) in assay [5], in [6] and in assay [7] was more than 30 µM each time.

For the compound `Clc1ccc(Cn2c(CN3CCCC3)nc3ccccc32)cc1` [CLEMIZOLE], the AC50 in [1] was more than 10 µM; in assay [2], more than 30 µM; in assay [3], more than 30 µM; in [4], more than 30 µM; on Melanocortin receptor 3, more than 30 µM; in [5], 24 µM. In addition, the AC50 in assay [6] was more than 30 µM; in [7], 13 µM.

Turning to `CCC(=O)O[C@]1(C(=O)CCl)[C@@H](C)C[C@H]2[C@@H]3CCC4=CC(=O)C=C[C@]4(C)[C@@]3(F)[C@@H](O)C[C@@]21C` [CLOBETASOL PROPIONATE], the half-maximal activity concentration (AC50) (in [1]; in assay [2]; in assay [3]; in [4]; at Melanocortin receptor 3; in assay [5]) was more than 30 µM in each case. Also, the AC50 in assay [6] and in [7] was more than 30 µM in each case.

As to `Cc1nc(Nc2ncc(C(=O)Nc3c(C)cccc3Cl)s2)cc(N2CCN(CCO)CC2)n1` [DASATINIB], the AC50 in assay [1] is more than 30 µM; in assay [2], more than 30 µM; in [3] it was more than 30 µM; in [4] it was more than 30 µM; at Melanocortin receptor 3, more than 30 µM; on Thromboxane A2 receptor, more than 10 µM. Moreover, the figures for the concentration at half-maximal activity (AC50) in assay [5], in assay [6] and in assay [7] were 25.3 µM, 6.3 µM and 10 µM, respectively.

For `CC(C)Cc1ccc([C@H](C)C(=O)O)cc1` [DEXIBUPROFEN], the AC50 (in [1]; in [2]; in assay [3]; in assay [4]; at Melanocortin receptor 3; in assay [5]) was more than 30 µM in each case. In addition, the concentration at half-maximal activity (AC50) in assay [6] and in assay [7] was more than 30 µM throughout.

Take `Cc1onc(-c2c(F)cccc2Cl)c1C(=O)N[C@@H]1C(=O)N2[C@@H]1SC(C)(C)[C@@H]2C(=O)O` [FLOXACILLIN]: the AC50 (in assay [1]; in [2]; in [3]; in assay [4]; on Melanocortin receptor 3; in [5]) was more than 30 µM each time. Further, the AC50 in assay [6] and in [7] was more than 30 µM in each case.

As to `COc1cc(C(C)=O)ccc1OCCCN1CCC(c2noc3cc(F)ccc23)CC1` [ILOPERIDONE], the AC50 in assay [1] is more than 30 µM; in [2] it was more than 30 µM; in assay [3], more than 30 µM; in assay [4], more than 30 µM; on Melanocortin receptor 3, more than 30 µM; in assay [5], 5.95 µM. Also, the AC50 was 1.63 µM in assay [6] and 0.0092 µM in assay [7].

With `CN1Cc2c(N)cccc2C(c2ccccc2)C1` (stereo not drawn) [NOMIFENSINE], the half-maximal activity concentration (AC50) (in assay [1]; in [2]; in [3]; in assay [4]; at Melanocortin receptor 3; at Thromboxane A2 receptor) was more than 30 µM in each case. Besides, in assay [7], the AC50 was 13 µM.

For the compound `CC(CN1c2ccccc2Sc2ccccc21)N(C)C` (stereo not drawn) [PROMETHAZINE], the AC50 in [2] is more than 30 µM; in assay [3], more than 10 µM; in [4] it was more than 30 µM; on Melanocortin receptor 3 it was 31.9 µM; at Thromboxane A2 receptor, more than 30 µM; in assay [5] it was more than 10 µM. Moreover, the AC50 in assay [6] is 0.81 µM; in assay [7], 1.7 µM.

Regarding `O=C1Cc2cc(CCN3CCN(c4nsc5ccccc45)CC3)c(Cl)cc2N1` [ZIPRASIDONE], the AC50 in [2] is more than 30 µM; in assay [3], 0.95 µM; in assay [4], more than 10 µM; on Melanocortin receptor 3, more than 30 µM; at Thromboxane A2 receptor, more than 30 µM; in [5], 5.11 µM. Also, the AC50 in [6] was determined as 0.89 µM; in assay [7] it was 0.684 µM.
